# Measured values as given in patent publication US20240277829A1, “HIV-1 VACCINATION AND SAMT-247 MICROBICIDE TO PREVENT HIV-1 INFECTION” (priority 2021, published 2024).
# How the values were obtained:
# Type in all cases: cell-based
# [1] = tested on: macaque rectal mucosal NK cells; assay: Frequencies and cytokine levels of macaque rectal mucosal NK/ILCs following SAMT-247 and PMA stimulation
# From the text: (§1) Additionally, rectal tissue from 9 macaques was used for an in vitro study. The age-matched macaques from this separate study (P204) included 4 animals vaccinated against HIV and 5 naïve animals, all challenged with SHIV. Rectal tissue was obtained post challenge from 7 infected and 2 uninfected animals for the P204 study analysis. Extra cells were available from that collection and were used here for the in vitro study.
# (§2) Frequencies and cytokine levels of macaque rectal mucosal NK cells and T cells following SAMT-247 and PMA stimulation. NK/ILC and T cell frequencies and cytokine levels were measured in macaque rectal mucosa. Freshly collected rectal biopsies were processed to single cells and cultured in R10 in the presence/or absence of SAMT-247 and/or PMA for 12 hours. Subsequently, cells were stained for live cells with Live/Dead Blue dye (cat. #L34962, 0.5 μl) from Thermofisher; followed by surface staining with the following: BUV737 anti-CD3 (SP34-2; cat. #741872, 5 μl), BV711 anti-CD4 (L200; cat. #563913, 5 μl), BV650 anti-NKp44 (P44-8; cat. #744302, 5 μl), Alexa700 anti-CD20 (2H7; cat. #560631, 5 μl), BV786 anti-CD45 (D058-1283; cat. #563861, 5 μl) from BD Biosciences; APC-H7 anti-CD11b (ICRF44; cat. #47-0118-42, 5 μl), PE-Cy5 anti-CD95 (ICRF44; cat. #15-0959-42, 5 μl) from eBioscience; BV570 anti-CD8 (RPA-T8; cat. #301038, 5 μl), BV605 anti-CCR6 (G034E3; cat. #353420, 5 μl), APC anti-CXCR3 (G025H7; cat. #353708, 5 μl), from Biolegend and PE-Cy7 anti-NKG2A (Z199; cat. #B10246, 5 μl) from Beckman coulter for 30 minutes at room temperature. This was followed by permeabilization with a FOX3-transcription buffer set (cat. #00-5523-00) from eBioscience according to the manufacture's recommendation and subsequently intracellular staining with the following: BV750 anti-TNF-α (MAB11; cat. #566359, 5 μl), BUV395 anti-IFN-γ (B27; cat. #563563, 5 μl), BV510 anti-GranB (GB11; cat. #563388, 5 μl), BV421 anti-IL-10 (JES3-9D7; cat. #564053, 5 μl) from BD Biosciences; PE-Cy5.5 anti-IL-17 (BL168; cat. #512314, 5 μl) from Biolegend; and FITC anti-Perforin (pf-344; cat. #3465-7, 5 μl) from MABTECH for 30 minutes at room temperature. Flow cytometry acquisitions were performed on a FACSymphony A5 and examined using FACSDiva software (BD Biosciences).
# [2] = tested on: mucosal Th1 and Th2 cells; assay: Frequencies and cytokine levels of macaque rectal mucosal T cells following SAMT-247 and PMA stimulation; settings: following PMA stimulation
# From the text: as §1, §2
# [3] = tested on: NKG2A^+ NK cells; assay: Intracellular cytokines of human blood NK cells using SAMT-247 and PMA stimulation with or without zinc chelator; settings: human PBMCs
# Method: Intracellular cytokines of Human blood NK cells using SAMT-247 and PMA stimulation with or without zinc chelator. The levels of NKG2A^+ NK cells were measured in blood of healthy humans. Human PBMCs were thawed and cultured in R10 in the presence or absence of SAMT-247 and/or PMA for 12 hours. Cells were incubated with or without Zinc chelator TPEN (cat. #P4413-100 MG, 5 μM) for 12 h. Subsequently, PBMCs were surface stained with the following: BUV737 anti-CD3 (SP34-2; cat. #741872, 5 μl), Alexa700 anti-CD20 (2H7; cat. #560631, 5 μl), BV786 anti-CD45 (HI30; cat. #563716, 5 μl) from BD Biosciences; APC-H7 anti-CD11b (ICRF44; cat. #47-0118-42, 5 μl) from eBioscience and PE-Cy7 anti-NKG2A (Z199; cat. #B10246, 5 μl) from Beckman coulter for 30 minutes at room temperature. This was followed by permeabilization with FOX3-transcription buffer set (cat. #00-5523-00) from eBioscience according to the manufacture's recommendation and subsequently intracellular staining with the following: BV750 anti-TNF-α (MAB11; cat. #566359, 5 μl), BUV396 anti-IFN-γ (B27; cat. #563563, 5 μl), BV510 anti-GranB (GB11; cat. #563388, 5 μl) from BD Biosciences; and FITC anti-Perforin (pf-344; cat. #3465-7, 5 μl) from MABTECH for 30 minutes at room temperature. Flow cytometry acquisitions were performed on a FACSymphony A5 and examined using FACSDIVA™ software (BD Biosciences).
# [4] = macaque rectal mucosal NK cells, PMA
compound,measurement,setting,value
CC(=O)Sc1ccccc1C(=O)NCCC(N)=O [SAMT-247],Cytokine,"[1]; NKp44^+, Mucosa, PMA",>IL-17
same,Function,"[1]; NKp44^+, Mucosa, PMA",>Epithelium
same,IFN-γ and TNF-α production,[1]; [4],decreased
same,NKG2A^+ cells expressing granzyme B and perforin,[1]; [4],increased
same,percentage of NKp44^+ cells producing IL-17,[1]; mucosal cells from 9 macaques exposed in vitro,augmented
same,ability of NKG2A^−NKp44^− cells to produce IFN-γ,[1]; mucosal cells in vitro,tended to decrease
same,frequency of the NKG2A^−NKp44^− population,[1]; mucosal cells in vitro,decreased
same,IL-10 production in mucosal Th1 cells,[2],increase
same,TNF-α production in mucosal Th1 and Th2 cells,[2],significant decrease
same,"expression of granzyme, perforin, or cytokines",[3]; absence of PMA stimulation,did not affect
same,percentage of IFN-γ and TNF-α producing NKG2A^+ cells,[3]; presence of PMA,decreased
same,percentage of NKG2A^+ NK cells expressing granzyme B and perforin,[3]; presence of PMA,increased
